As usually defined, the IC50 is the concentration at which inhibition is half-maximal. In general, ΔTm refers to the change in melting temperature against a reference sample.

Some results are limits rather than exact numbers.

For the first test, the system named is THP-1. Kind of test: Antiproliferative activity against human THP1 cells assessed as reduction in cell viability incubated for 5 days by MTT assay. As to conditions: THP-1, 120 h. (In general: Tetrazolium dyes change colour on reduction, which living cells bring about.)
As for `C=C1C(=O)OCC1C(O)c1cn(Cc2ccc(F)cc2)c2ccc(Cl)cc12` (stereo unspecified), the IC50 worked out at 1.2 µM.

The test system of the next test is THP-1. The test is described as follows: Inhibition of colony formation in human THP1 cells incubated for 2 weeks by microscopic analysis. Format: functional, cell-based.
Conditions: not given
Regarding `c1ccc([C@@H]2C[C@H]2NC2CCNCC2)cc1`, the inhibition entry is “Dose-dependent effect”.

Consider `C=C1C(=O)OCC1C(O)c1cn(Cc2ccc(F)cc2)c2ccc(Cl)cc12` (stereo unspecified), for which the inhibition result is “Dose-dependent effect”.

A further test has as its target T1, Lysine-specific histone demethylase 1A (Homo sapiens, UniProt O60341).
Conditions: not given
Regarding `c1ccc([C@@H]2C[C@H]2NC2CCNCC2)cc1`, the Ka is 2.6 ×10³ /M.s.

In a further test the target is T1, Lysine-specific histone demethylase 1A. The test is described as follows: Inhibition of recombinant LSD1 (unknown origin) (catalytic domain 157 to 852 residues) expressed in Escherichia coli BL21 using H3K4me1 as substrate incubated for 1 hr by horse-radish peroxidase/amplex red-based fluorescence method.
Conditions: not given
With `O=C(c1cn(Cc2ccc(F)cc2)c2ccc(Cl)cc12)C1CC1`, the IC50 was more than 10 µM.

With `O=C(/C=C/c1cccs1)c1cn(Cc2ccc(F)cc2)c2ccc(Cl)cc12`, the IC50 is more than 10 µM.

Regarding `C=C1C(=O)OCC1C(O)c1cn(Cc2ccc(Cl)cn2)c2ccc(Cl)cc12` (stereo unspecified), the half-inhibitory concentration (IC50) is more than 10 µM.

Take `C=C1C(=O)OCC1C(O)c1cn(C(=O)c2c(C)noc2C)c2ccc(Cl)cc12` (stereo unspecified): the IC50 was more than 10 µM.

In the case of `CC1=CCSC1C(=O)c1cn(Cc2ccc(F)cc2)c2ccc(Cl)cc12` (stereo unspecified), the concentration for half-maximal inhibition (IC50) is more than 10 µM.

Turning to `C=C1C(=O)OCC1C(O)c1cn(CC2CC2)c2ccc(Cl)cc12` (stereo unspecified), the IC50 was more than 10 µM.

Regarding `C=C1C(=O)OCC1C(O)c1cn(Cc2cnc(Cl)s2)c2ccc(Cl)cc12` (stereo unspecified), the IC50 is more than 10 µM.

Turning to `O=C(c1ccc(F)cc1)c1cn(Cc2ccc(F)cc2)c2ccc(Cl)cc12`, the IC50 was more than 10 µM.

With `C=C1C(=O)OCC1C(O)c1cn(Cc2ccc(Cl)cc2)c2c(OC)cccc12` (stereo unspecified), the IC50 was more than 10 µM.

In the case of `C=C1C(=O)OCC1C(O)c1cn(Cc2ncccn2)c2ccc(Cl)cc12` (stereo unspecified), the IC50 was more than 10 µM.

As to `C=C1C(=O)OCC1C(O)c1cn(Cc2nc3ccccc3s2)c2ccc(Cl)cc12` (stereo unspecified), the IC50 is more than 10 µM.

For `C=C1C(=O)OCC1C(O)c1cn(C(=O)/C=C/c2ccccc2)c2ccc(Cl)cc12` (stereo unspecified), the IC50 is more than 10 µM.

On to `C=C1C(=O)OCC1C(O)c1cn(Cc2ccncc2)c2ccc(Cl)cc12` (stereo unspecified), for which the IC50 is more than 10 µM.

With `O=C(c1ccccc1)c1cn(Cc2ccc(F)cc2)c2ccc(Cl)cc12`, the IC50 was more than 10 µM.

`C=C1C(=O)OCC1C(O)c1cn(Cc2nc(C)c3ccccc3n2)c2ccc(Cl)cc12` (stereo unspecified): the IC50 is more than 10 µM.

As to `Cc1ccc(C(=O)c2cn(Cc3ccc(F)cc3)c3ccc(Cl)cc23)cc1`, the IC50 was more than 10 µM.

As to `C=C1C(=O)OCC1C(O)c1cn(Cc2cncc(C)c2)c2ccc(Cl)cc12` (stereo unspecified), the IC50 was more than 10 µM.

`C=C1C(=O)OCC1C(O)c1cn(Cc2ccc(Cl)cc2)c2cccc(OC)c12` (stereo unspecified): the IC50 is more than 10 µM.

With `C=C1C(=O)OCC1C(O)c1cn(Cc2ccc(Cl)cc2)c2ccc(Cl)cc12` (stereo unspecified), the IC50 is more than 10 µM.

Turning to `C=C1C(=O)OCC1C(O)c1cn(Cc2ccc(Cl)s2)c2ccc(Cl)cc12` (stereo unspecified), the IC50 was more than 10 µM.

Take `O=C(c1ccnc(Cl)c1)c1cn(Cc2ccc(F)cc2)c2ccc(Cl)cc12`: the 50% inhibitory concentration (IC50) was more than 10 µM.

On to `C=C1C(=O)OCC1C(O)c1cn(Cc2ccc(Cl)cc2)c2ccc(OC)cc12` (stereo unspecified), for which the IC50 is more than 10 µM.

`C=C1C(=O)OCC1C(O)c1cn(Cc2ccc(Cl)cc2)c2cc(Cl)ccc12` (stereo unspecified): the IC50 is more than 10 µM.

In the case of `C=C1C(=O)OCC1C(O)c1cn(Cc2ccc(Cl)cc2)c2c(Cl)cccc12` (stereo unspecified), the IC50 is more than 10 µM.

For the compound `OC(c1ccccc1)c1cn(Cc2ccc(F)cc2)c2ccc(Cl)cc12` (stereo unspecified), the IC50 is more than 10 µM.

Consider `C=C1C(=O)OCC1C(O)c1cn(Cc2ccc(Cl)cc2)c2cc(OC)ccc12` (stereo unspecified), for which the IC50 is more than 10 µM.

Take `C=C1C(=O)OCC1C(O)c1cn(Cc2csc(N)n2)c2ccc(Cl)cc12` (stereo unspecified): the 50% inhibitory concentration (IC50) was more than 10 µM.

Regarding `C=C1C(=O)OCC1C(O)c1cn(Cc2ccc(Cl)cc2)c2cccc(Cl)c12` (stereo unspecified), the IC50 was more than 10 µM.

As to `C=C1C(=O)OCC1C(O)c1cn(Cc2nc3ccccc3o2)c2ccc(Cl)cc12` (stereo unspecified), the 50% inhibitory concentration (IC50) is more than 10 µM.

With `O=C(/C=C/c1ccco1)c1cn(Cc2ccc(F)cc2)c2ccc(Cl)cc12`, the IC50 was more than 10 µM.

Turning to `O/N=C(\c1ccccc1)c1cn(Cc2ccc(F)cc2)c2ccc(Cl)cc12`, the half-maximal inhibitory concentration (IC50) was more than 10 µM.

For the compound `C=C1C(=O)OCC1C(O)c1cn(Cc2nc3ccccc3[nH]2)c2ccc(Cl)cc12` (stereo unspecified), the IC50 was more than 10 µM.

For the compound `C=C1C(=O)OCC1C(O)c1cn(Cc2c(C)noc2C)c2ccc(Cl)cc12` (stereo unspecified), the IC50 is more than 10 µM.

In the case of `CC(=O)c1cn(Cc2ccc(F)cc2)c2ccc(Cl)cc12`, the IC50 was more than 10 µM.

In the case of `C=C1C(=O)OCC1C(O)c1cn(C(=O)c2ccco2)c2ccc(Cl)cc12` (stereo unspecified), the IC50 is more than 10 µM.

As to `C=C1C(=O)OCC1C(O)c1cn(C(=O)c2cccnc2Cl)c2ccc(Cl)cc12` (stereo unspecified), the IC50 was more than 10 µM.

Take `C=C1C(=O)OCC1C(O)c1cn(C(=O)C2CC2)c2ccc(Cl)cc12` (stereo unspecified): the IC50 is more than 10 µM.

On to `O=C(c1ccco1)c1cn(Cc2ccc(F)cc2)c2ccc(Cl)cc12`, for which the IC50 was more than 10 µM.

On to `C=C1C(=O)OCC1C(O)c1cn(C(=O)c2sccc2C)c2ccc(Cl)cc12` (stereo unspecified), for which the IC50 is more than 10 µM.

Turning to `C=C1C(=O)OCC1C(O)c1cn(Cc2ccc(Cl)cc2)c2ccc(F)cc12` (stereo unspecified), the IC50 was more than 10 µM.

As for `O=C(c1ccncc1)c1cn(Cc2ccc(F)cc2)c2ccc(Cl)cc12`, the IC50 is more than 10 µM.

The target is the same in a further test.
Conditions: not given
The source holds these as a separate data set.
Turning to `c1ccc([C@@H]2C[C@H]2NC2CCNCC2)cc1`, the ΔTm came out at 8.37 °C.

The subject of a further test is THP-1. The test is described as follows: Induction of cellular morphology change in human THP1 cells assessed as blurred cell membrane boundaries with chromatin shrinkage incubated for 3 days by hematoxylin and eosin staining based microscopic analysis. Format: functional.
Conditions: not given
In the case of `c1ccc([C@@H]2C[C@H]2NC2CCNCC2)cc1`, the Activity entry is “Dose-dependent effect”.

In the case of `C=C1C(=O)OCC1C(O)c1cn(Cc2ccc(F)cc2)c2ccc(Cl)cc12` (stereo unspecified), the Activity entry was “Dose-dependent effect”.

The next test addresses T1, Lysine-specific histone demethylase 1A.
Conditions: not given
This is another data set of the same source.
As to `c1ccc([C@@H]2C[C@H]2NC2CCNCC2)cc1`, the ΔTm is 4.28 °C.

The target is the same in the next test.
Conditions: not given
The source holds these as a separate data set.
Compound `c1ccc([C@@H]2C[C@H]2NC2CCNCC2)cc1` showed a Kdiss of 1.11 ×10⁻¹ /s.

For a further test the target is unchanged.
Conditions: not given
This is another data set of the same source.
Take `c1ccc([C@@H]2C[C@H]2NC2CCNCC2)cc1`: the ΔTm was found to be 2.21 °C.

The values above are taken from ChEMBL document CHEMBL4393711, “Discovery and synthesis of novel indole derivatives-containing 3-methylenedihydrofuran-2(3H)-one as irreversible LSD1 inhibitors” (Eur J Med Chem, 2019).
